Measurements as given in article PMC9272924, “Design and synthesis of thiazolidine-2,4-diones hybrids with 1,2-dihydroquinolones and 2-oxindoles as potential VEGFR-2 inhibitors: in-vitro anticancer evaluation and in-silico studies” (Journal of Enzyme Inhibition and Medicinal Chemistry, 2022).
Several values for one entry are separate records, joined by “and”; a condition that tells them apart may be missing. Identical values can stand only once. Entries after “also recorded” stand apart in the source; their conditions may differ.

How the values were obtained:
[1] = target: T1, VEGFR-2 (Homo sapiens, UniProt P35968); assay: In vitro VEGFR-2 kinase assay (VEGFR-2 ELISA kit); assay type: biochemical; details: for HillSlope, best-fit value, VEGFR-2 inhibition / LogIC50, best-fit value, VEGFR-2 inhibition: raw data curve fit, % remaining activity
T1 construct: purchased
T1 sequence (P35968 20-1356): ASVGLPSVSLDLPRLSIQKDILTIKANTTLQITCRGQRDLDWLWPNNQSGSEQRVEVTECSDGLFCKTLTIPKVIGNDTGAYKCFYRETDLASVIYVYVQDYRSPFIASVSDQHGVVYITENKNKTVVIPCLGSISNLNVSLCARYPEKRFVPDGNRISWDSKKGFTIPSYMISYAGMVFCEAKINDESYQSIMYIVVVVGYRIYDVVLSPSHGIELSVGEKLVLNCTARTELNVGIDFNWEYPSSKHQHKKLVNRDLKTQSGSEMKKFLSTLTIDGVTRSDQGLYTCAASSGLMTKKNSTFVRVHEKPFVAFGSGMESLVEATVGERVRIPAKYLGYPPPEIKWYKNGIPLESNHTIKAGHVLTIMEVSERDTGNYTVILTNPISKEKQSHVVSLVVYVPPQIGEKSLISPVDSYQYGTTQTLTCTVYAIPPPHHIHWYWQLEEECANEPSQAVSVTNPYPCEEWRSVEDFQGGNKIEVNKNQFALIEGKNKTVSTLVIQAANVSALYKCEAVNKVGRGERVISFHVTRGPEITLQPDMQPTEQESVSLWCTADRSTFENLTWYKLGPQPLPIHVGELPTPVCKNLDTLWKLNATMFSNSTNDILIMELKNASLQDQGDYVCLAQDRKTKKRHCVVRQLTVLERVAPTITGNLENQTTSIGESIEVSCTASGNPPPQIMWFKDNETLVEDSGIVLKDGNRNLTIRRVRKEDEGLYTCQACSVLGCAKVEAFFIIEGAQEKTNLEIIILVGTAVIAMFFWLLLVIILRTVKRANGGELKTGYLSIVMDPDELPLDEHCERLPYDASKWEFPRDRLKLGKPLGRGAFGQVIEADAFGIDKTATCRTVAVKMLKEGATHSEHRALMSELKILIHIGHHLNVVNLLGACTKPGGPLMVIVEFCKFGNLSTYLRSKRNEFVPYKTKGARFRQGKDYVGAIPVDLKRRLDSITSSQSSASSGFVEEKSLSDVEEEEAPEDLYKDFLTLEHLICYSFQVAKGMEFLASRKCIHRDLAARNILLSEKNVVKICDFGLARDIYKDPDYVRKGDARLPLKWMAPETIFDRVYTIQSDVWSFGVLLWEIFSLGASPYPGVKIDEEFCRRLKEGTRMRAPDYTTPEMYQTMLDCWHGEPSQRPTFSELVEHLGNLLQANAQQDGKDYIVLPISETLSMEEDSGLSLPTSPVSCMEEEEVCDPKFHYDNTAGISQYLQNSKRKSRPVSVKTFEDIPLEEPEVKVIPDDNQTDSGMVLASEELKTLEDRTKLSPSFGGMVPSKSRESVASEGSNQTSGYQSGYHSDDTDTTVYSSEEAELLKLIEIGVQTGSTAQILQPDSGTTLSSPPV
From the text: To explore the molecular mechanism of the tested compounds as anticancer agents, the compounds were further evaluated to assess their enzymatic inhibitory potential against VEGFR-2.
VEGFR-2 inhibitory activity of the experimented compounds was preceded using a VEGFR-2 ELISA kit as reported and described in Supplementary data.

[2] = test system: MDA-MB-231; assay: In vitro anti-proliferative activity (MTT assay), MDA-MB-231; assay type: cell-based; details: for IC50: Homo sapiens, MDA-MB-231, MTT assay, mean of three replicates; for Selectivity index (SI) (MDA-MB-231): SI = Cytotoxicity against Vero cells / Cytotoxicity against MDA-MB-231 cell line
Experimental: (§1) Target quinolines 8a–c, indolines 12a and 12b were assessed for their potential anti-proliferative effects against a panel of three different cancer cell lines; colon (Caco-2), hepatocellular (HepG2), and breast (MDA-MB-231) cancer cell lines using standard MTT assay protocol. The obtained results confirmed the anti-cancer effects of the tested compounds against the three types of cancerous cell lines, expressed as the median growth inhibitory concentration (IC50), and were presented in Table 1.
(§2) Anti-proliferative activities of the experimented compounds were assessed against Caco-2, HepG-2, and MDA-MB-231 cell lines using MTT assay protocol[54]^,[74] as described in Supplementary data. […]
(§3) a- Mammalian cell lines culture
(§4) WISH, CaCo-2, and A549 cell lines were cultured on DMEM media, meanwhile MDA-MB-231 and hepG-2 cell line were cultured on RBMI media. The cultured media were supplemented with 200 mM L-glutamine, 10.0% fetal bovine serum (Lonza), and 1.0% penicillin/streptomycin. Cells were seeded into 25.0 cm tissue culture flasks and incubated at 37◦C in a 5.0% CO2 incubator for 24 h or till confluency.
(§5) The safety profiles of the tested compounds were checked on one non-cancerous cell line (Vero) to […]
(§6) of 100.0 µl of 6×10^4 cell/ml cells was seeded into each well of a 96-well plate and then the plates were incubated at 37 °C in a humidified 5.0% CO2 incubator for 24 h. At the end of incubation period, the exhausted medium was replaced with 100.0 µl of different concentrations of the designated treatment (prepared in RPMI medium starting from 1.0 mM). The inoculated plates were incubated at the same growth conditions for another 24 h. At the end of incubation, cellular viability was assessed using MTS assay kit (Promega) according to the manual instruction. c- In-vitro anticancer activity
(§7) Anticancer activities of the tested compounds against CaCo-2, MDA-MB-231, and hepG-2 cell lines were quantified using MTS assay kit (Promega) as described by the Manufacturer. d- Selectivity index (SI)
(§8) The selectivity index values of the tested compounds on cancer cells were calculated as described by Koch et al., with slight modifications; SI=IC50nc/IC50cc, where IC50nc: the IC 50 value of the tested compound on normal cells and IC 50cc: IC50 of the te sted compound on cancer cell line . […]

[3] = test system: Caco-2; assay: In vitro anti-proliferative activity (MTT assay), Caco-2; assay type: cell-based; details: Homo sapiens, Caco-2; MTT assay; mean of three replicates
Experimental: as §1, §2, §3, §4, §5, §6, §7, §8

[4] = as above; assay type: cell-based; details: African green monkey (Vero); human (Caco-2); SI = Cytotoxicity against Vero cells / Cytotoxicity against Caco-2 cell line; read-out: Selectivity index (SI) (Caco-2)
Experimental: as §1, §2, §3, §4, §5, §6, §7, §8

[5] = test system: HepG2; assay: In vitro anti-proliferative activity (MTT assay), HepG2; assay type: cell-based; details: for IC50: Homo sapiens, HepG2, MTT assay, mean of three replicates; for Selectivity index (SI) (HepG2): SI = Cytotoxicity against Vero cells / Cytotoxicity against HepG2 cell line
Experimental: as §1, §2, §3, §4, §5, §6, §7, §8

[6] = Safety assay: in-vitro viability on non-cancerous Vero cell line; assay type: cell-based; details: African green monkey, Vero cells (non-cancerous cell line), MTT assay, read-out: Cytotoxicity against Vero (IC50 µM)
Experimental: An in-vitro viability test was used to investigate the safety patterns of the tested compounds at different concentrations (1.0 mM/mL to 50 µM/mL). The Vero cell line was used as a non-cancerous cell line model to investigate the safety of the synthesised compounds. […] Such values were very high in comparison to the corresponding values on cancer cell lines, which reflect the high in vitro safety profile of the tested members towards non-cancerous cell lines (Table 2). […]
as §3, §4, §5
as §6, with “c- In-vitro anticancer activity” left out
d- Selectivity index (SI)
as §8

[7] = test system: Caco-2 cells; assay: Cell migration (in-vitro scratch / wound healing) assay; assay type: cell-based
From the text: The potential of compound 12a to inhibit the ability of Caco-2 cells to migrate and heal was investigated through the in-vitro scratch assay which is a low-cost easy and well-developed method. The basic concept of this method involves the generation of a scratch in a cancer cell line monolayer, recording the diameter at the beginning, and at regular intervals during cell migration to close that scratch. The obtained results of the treated cell line are then compared to the untreated cell line. Images of scratched areas from the time points; 0, 24 are illustrated in Figure 3.
Regarding the representative control, the scratch was completely closed within 24 h (Figure 3(C)). […] This significant morphological change could be linked to the incidence of apoptosis in the treated cancer cells.
Cell migration assay was fulfilled according to the reported protocol as described[78] in Supplementary data. […]
as §3
as §4, with “confluency. […]” for “confluency.”
e- Wound healing assay (Migration assay)
CaCo-2 cells were grown to 95.0% confluency in a complete DMEM medium and then the wounds were formed using a plastic tip. After washing with pre -warmed PBS, the cells were incubated in the specific medium or the 12a treatment. After incubation at 37°C and 5.0% CO 2 for 24h, the cells were washed with PBS and the wounds distance was determined as the scratch width of the treated and untreated groups using […]

[8] = test system: Bcl-xl; assay: Gene expression by RT-qPCR in Caco-2 cells, Bcl-xl; assay type: cell-based; details: Caco-2 treated with 2 µM (IC50 value) of 12a, compared to control cells
From the text: (§9) These findings indicate the efficiency of compound 12a in the induction of apoptosis (Figure 4).
(§10) The molecular anticancer mode of action of 12a was investigated by screening their ability to control the gene expression levels of Bcl2, Bcl-xl, TGF and Survivin genes as reported[79] in Supplementary data. […]
(§11) f- Gene expression pattern alternation of cancer cell after 12a treatment The molecular anticancer mode of action of 12a was investigated by screening their ability to affect the gene expression levels of Bcl2, Bcl-xl, TGF and Survivin genes using specific forward and reverse primers and RTq-PCR technique (Table 1) in CaCo-2 cells (chosen as the most sensitive cancer cell line). After cellular treatment, CaCo-2 cell line was cultured into 12 well plates (6×10^3 cell/ml) for 24 h. with the sub- […]
(§12) After treatment, total RNA extraction was performed using RNA extraction kit (Qiagen, Germany). Then, 1 ug of the obtained RNA was used to synthesiz cDNA using cDNA synthesis kit (Promega Corp., Madison, WI) as recommended by the manufacturer. Simultaneously, GAPDH forward and reverse primers (Table 1) were used to amplify the house keeping gene as internal control for standardization of PCR products. The RTq-PCR was done using SYBR Green dye (QuantiTect SYBR Green PCR Kits) and Light Cycler fluorimeter (Bio-RAD S1000 Tm thermal cycler). […]

[9] = test system: Survivin; assay: Gene expression by RT-qPCR in Caco-2 cells, Survivin; assay type: cell-based; details: Caco-2 treated with 2 µM (IC50 value) of 12a, compared to control cells
From the text: as §9, §10, §11, §12

[10] = test system: Bcl2; assay: Gene expression by RT-qPCR in Caco-2 cells, Bcl2; assay type: cell-based; details: Caco-2 treated with 2 µM (IC50 value) of 12a, compared to control cells
From the text: as §9, §10, §11, §12

[11] = test system: TGF; assay: Gene expression by RT-qPCR in Caco-2 cells, TGF; assay type: cell-based; details: Caco-2 treated with 2 µM (IC50 value) of 12a, compared to control cells
From the text: as §9, §10, §11, §12

SMILES | IC50 [1] | HillSlope, best-fit value, VEGFR-2 inhibition [1] | LogIC50, best-fit value, VEGFR-2 inhibition [1] | IC50 [2] | Selectivity index (SI) (MDA-MB-231) [2] | IC50 [3] | selectivity ratio [4] | IC50 [5] | Selectivity index (SI) (HepG2) [5] | IC50 at 24 h [6] | wound diameter of treated Caco-2 cells ([7]; 12a at sub IC50 value (1 µM), 24 h, 0.348 mm at 0 h, control scratch completely closed within 24 h) | scratch closure and cancer cell migration ([7]; Caco-2, 1 µM, 24 h) | Caco-2 cell shape ([7]; within 24 h) | Bcl-xl gene expression [8] | Survivin gene expression [9] | Bcl2 gene expression [10] | TGF gene expression [11]
Cc1ccc(NC(=O)CN2C(=O)SC(=Cc3cc4ccccc4[nH]c3=O)C2=O)cc1 [Compound 8a, 2–(2,4-Dioxo-5-((2-oxo-1,2-dihydroquinolin-3-yl)methylene)thiazolidin-3-yl)-N-(p-tolyl)acetamide] | 0.0966 µM | -0.4030 | 1.985 Log (nM) | 150 ± 0.01 µM | 10.60 | 9 ± 0.001 µM | 177 | 86 ± 0.001 µM | 18.49 | 1590 ± 0.068 µM |  |  |  |  |  |  | 
O=C(CN1C(=O)SC(=Cc2cc3ccccc3[nH]c2=O)C1=O)NCCc1ccccc1 [Compound 8b, 2–(2,4-Dioxo-5-((2-oxo-1,2-dihydroquinolin-3-yl)methylene)thiazolidin-3-yl)-N-phenethylacetamide] | 0.0874 µM | -0.3502 | 1.941 Log (nM) | 60 ± 0.003 µM | 14.83 | 150 ± 0.013 µM | 5.93 | 60 ± 0.008 µM | 14.83 | 890 ± 0.015 µM |  |  |  |  |  |  | 
O=C(CN1C(=O)SC(=Cc2cc3ccccc3[nH]c2=O)C1=O)Nc1ccccc1[N+](=O)[O-] [Compound 8c, 2–(2,4-Dioxo-5-((2-oxo-1,2-dihydroquinolin-3-yl)methylene)thiazolidin-3-yl)-N-(2-nitrophenyl)acetamide] | 0.318 µM | -0.3460 | 2.502 Log (nM) | 70 ± 0.009 µM | 5.57 | 90 ± 0.004 µM | 4.33 | 156 ± 0.004 µM | 2.50 | 390 ± 0.02 µM |  |  |  |  |  |  | 
Cc1ccc(NC(=O)CN2C(=O)S/C(=C3\C(=O)Nc4ccccc43)C2=O)cc1 [Compound 12a, (Z)-2–(2,4-dioxo-5–(2-oxoindolin-3-ylidene)thiazolidin-3-yl)-N-(p-tolyl)acetamide] |  | -0.4584 | 2.066 Log (nM) | 40 ± 0.002 µM | 18 and 18.25 | 2 ± 0.005 µM | 365 | 10 ± 0.001 µM | 73.00 | 730 ± 0.015 µM | 0.335 mm | significantly inhibited the scratch closure and cancer cell migration; also recorded: significantly inhibited the ability of cancer cells to migrate and heal | changed the Caco-2 cell shape from an irregular into the normalised round form; also recorded: changed the cancer cell shape from irregular to a normalised round form | significant down-regulation; also recorded: downregulate | significant down-regulation; also recorded: downregulate | significant down-regulation; also recorded: downregulate | upregulation; also recorded: upregulate
O=C(CN1C(=O)S/C(=C2\C(=O)Nc3ccccc32)C1=O)Nc1ccccc1[N+](=O)[O-] [Compound 12b, (Z)-2–(2,4-dioxo-5–(2-oxoindolin-3-ylidene)thiazolidin-3-yl)-N-(2-nitrophenyl) acetamide] | 0.0841 µM | -0.2985 | 1.925 Log (nM) | 37 ± 0.002 µM | 12.97 | 120 ± 0.001 µM | 4 | 49 ± 0.008 µM | 9.80 | 480 ± 40 µM |  |  |  |  |  |  | 
COc1cccc2c1C(=O)c1c(O)c3c(c(O)c1C2=O)C[C@@](O)(C(=O)CO)C[C@@H]3O[C@H]1C[C@H](N)[C@H](O)[C@H](C)O1 [Doxorubicin, reference compound] |  |  |  | 0.98 ± 0.01 µM |  | 3.46 ± 0.003 µM |  | 1.15 ± 0.02 µM |  |  |  |  |  |  |  |  | 
